Tested on: patients with cGVHD
Conditions: Cohort 3 400 mg QD

CC(C)NC(=O)COc1cccc(-c2nc(Nc3ccc4[nH]ncc4c3)c3ccccc3n2)c1 [Belumosudil, 2-{3-[4-(1H-indazol-5-ylamino)-2-quinazolinyl]phenoxy}-N-(propan-2-yl) acetamide]
Fungal infection: # Events: 0 | Fungal infection: Affected/At Risk (%): 0/21 (0%) | Gamma-glutamyltransferase increased: # Events: 0 | Gamma-glutamyltransferase increased: Affected/At Risk (%): 0/21 (0%) | Gastric ulcer: # Events: 0 | Gastric ulcer: Affected/At Risk (%): 0/21 (0%) | Gastrooesophageal reflux disease: # Events: 2 | Gastrooesophageal reflux disease: Affected/At Risk (%): 2/21 (9.52%) | Generalised oedema: # Events: 1 | Generalised oedema: Affected/At Risk (%): 1/21 (4.76%) | Genital infection fungal: # Events: 0 | Genital infection fungal: Affected/At Risk (%): 0/21 (0%) | Glaucoma: # Events: 0 | Glucose urine present: # Events: 3 | Glucose urine present: Affected/At Risk (%): 1/21 (4.76%) | Grade ≥3 AE, No. (%): 14 (67) | Grade ≥3 ALT/AST increased, No. (%): 0 | Grade ≥3 Anemia, No. (%): 0 | Grade ≥3 Dyspnea, No. (%): 4 (19) | Grade ≥3 Hyperglycemia, No. (%): 2 (10) | Grade ≥3 Hypoxia, No. (%): 2 (10) | Grade ≥3 Lung infection or pneumonia, No. (%): 2 (10) | Graft versus host disease in gastrointestinal tract: # Events: 0 | Graft versus host disease in gastrointestinal tract: Affected/At Risk (%): 0/21 (0%) | Gynaecomastia: # Events: 0 | Gynaecomastia: Affected/At Risk (%): 0/21 (0%) | Haematuria: # Events: 2 | Haematuria: Affected/At Risk (%): 1/21 (4.76%) | Hair growth abnormal: # Events: 0 | Hair growth abnormal: Affected/At Risk (%): 0/21 (0%) | Headache: # Events: 8 | Headache: Affected/At Risk (%): 6/21 (28.57%) | Hodgkin's disease recurrent: # Events: 0 | Hodgkin's disease recurrent: Affected/At Risk (%): 0/21 (0%) | Hordeolum: # Events: 1 | Hordeolum: Affected/At Risk (%): 1/21 (4.76%) | Hot flush: # Events: 0 | Hot flush: Affected/At Risk (%): 0/21 (0%) | Hyperglycemia: # Events: 8 | Hyperglycemia: Affected/At Risk (%): 3/21 (14.29%) | Hyperhidrosis: # Events: 1 | Hyperhidrosis: Affected/At Risk (%): 1/21 (4.76%) | Hyperkalaemia: # Events: 4 | Hyperkalaemia: Affected/At Risk (%): 3/21 (14.29%) | Hypertension: # Events: 6 | Hypertension: Affected/At Risk (%): 4/21 (19.05%) | Hyperthyroidism: # Events: 1 | Hyperthyroidism: Affected/At Risk (%): 1/21 (4.76%) | Hypertriglyceridaemia: # Events: 0 | Hypertriglyceridaemia: Affected/At Risk (%): 0/21 (0%) | Hyperuricaemia: # Events: 5 | Hyperuricaemia: Affected/At Risk (%): 3/21 (14.29%) | Hypoaesthesia: # Events: 1 | Hypoaesthesia: Affected/At Risk (%): 1/21 (4.76%) | Hypocalcaemia: # Events: 1 | Hypocalcaemia: Affected/At Risk (%): 1/21 (4.76%) | Hypogonadism: # Events: 0 | Hypogonadism: Affected/At Risk (%): 0/21 (0%) | Hypokalaemia: # Events: 0 | Hypokalaemia: Affected/At Risk (%): 0/21 (0%) | Hypomagnesaemia: # Events: 1 | Hypomagnesaemia: Affected/At Risk (%): 1/21 (4.76%) | Hyponatraemia: # Events: 2 | Hyponatraemia: Affected/At Risk (%): 2/21 (9.52%) | Hypophosphataemia: # Events: 1 | Hypophosphataemia: Affected/At Risk (%): 1/21 (4.76%) | Hypothermia: # Events: 0 | Hypothermia: Affected/At Risk (%): 0/21 (0%) | Hypothyroidism: # Events: 4 | Hypothyroidism: Affected/At Risk (%): 3/21 (14.29%) | Hypoxia: # Events: 3 | Hypoxia: Affected/At Risk (%): 3/21 (14.29%) | Impaired healing: # Events: 0 | Impaired healing: Affected/At Risk (%): 0/21 (0%) | Influenza like illness: # Events: 0 | Influenza like illness: Affected/At Risk (%): 0/21 (0%) | Influenza: # Events: 2 | Influenza: Affected/At Risk (%): 2/21 (9.52%) | Insomnia: # Events: 3 | Insomnia: Affected/At Risk (%): 3/21 (14.29%) | Irritability: # Events: 0 | Irritability: Affected/At Risk (%): 0/21 (0%) | Joint range of motion decreased: # Events: 1 | Joint range of motion decreased: Affected/At Risk (%): 1/21 (4.76%) | Lacrimation increased: # Events: 0 | Lacrimation increased: Affected/At Risk (%): 0/21 (0%) | Leukaemia recurrent: # Events: 0 | Leukaemia recurrent: Affected/At Risk (%): 0/21 (0%) | Leukocytosis: # Events: 1 | Leukocytosis: Affected/At Risk (%): 1/21 (4.76%) | Ligament sprain: # Events: 0 | Ligament sprain: Affected/At Risk (%): 0/21 (0%) | Limb injury: # Events: 1 | Limb injury: Affected/At Risk (%): 1/21 (4.76%) | Macular degeneration: # Events: 0 | Macular degeneration: Affected/At Risk (%): 0/21 (0%) | Migraine: # Events: 0 | Migraine: Affected/At Risk (%): 0/21 (0%) | Muscle spasms: # Events: 6 | Muscle spasms: Affected/At Risk (%): 6/21 (28.57%) | Muscle spasticity: # Events: 1 | Muscle spasticity: Affected/At Risk (%): 1/21 (4.76%) | Muscular weakness: # Events: 2 | Muscular weakness: Affected/At Risk (%): 2/21 (9.52%) | Musculoskeletal chest pain: # Events: 1 | Musculoskeletal chest pain: Affected/At Risk (%): 1/21 (4.76%) | Myalgia: # Events: 3 | Myalgia: Affected/At Risk (%): 3/21 (14.29%) | Nail disorder: # Events: 0 | Nail disorder: Affected/At Risk (%): 0/21 (0%) | Nasal congestion: # Events: 1 | Nasal congestion: Affected/At Risk (%): 1/21 (4.76%) | Nausea: # Events: 12 | Nausea: Affected/At Risk (%): 9/21 (42.86%) | Neck pain: # Events: 0 | Neck pain: Affected/At Risk (%): 0/21 (0%) | Nephrotic syndrome: # Events: 0 | Nephrotic syndrome: Affected/At Risk (%): 0/21 (0%) | Neuropathy peripheral: # Events: 2 | Neuropathy peripheral: Affected/At Risk (%): 1/21 (4.76%) | Neutrophil count decreased: # Events: 1 | Neutrophil count decreased: Affected/At Risk (%): 1/21 (4.76%) | Nocturia: # Events: 0 | Nocturia: Affected/At Risk (%): 0/21 (0%) | Non-cardiac chest pain: # Events: 1 | Non-cardiac chest pain: Affected/At Risk (%): 1/21 (4.76%) | Obesity: # Events: 0 | Obesity: Affected/At Risk (%): 0/21 (0%) | Oedema peripheral: # Events: 6 | Oedema peripheral: Affected/At Risk (%): 6/21 (28.57%) | Oedema: # Events: 0 | Oedema: Affected/At Risk (%): 0/21 (0%) | Oesophageal ulcer: # Events: 0 | Oesophageal ulcer: Affected/At Risk (%): 0/21 (0%) | Oral candidiasis: # Events: 0 | Oral candidiasis: Affected/At Risk (%): 0/21 (0%) | Oropharyngeal pain: # Events: 1 | Oropharyngeal pain: Affected/At Risk (%): 1/21 (4.76%) | Orthopnoea: # Events: 0 | Orthopnoea: Affected/At Risk (%): 0/21 (0%) | Osteonecrosis: # Events: 0 | Osteonecrosis: Affected/At Risk (%): 0/21 (0%) | Osteopenia: # Events: 0 | Osteopenia: Affected/At Risk (%): 0/21 (0%) | Osteoporosis: # Events: 0 | Osteoporosis: Affected/At Risk (%): 0/21 (0%) | Overdose: # Events: 0 | Overdose: Affected/At Risk (%): 0/21 (0%) | Pain in extremity: # Events: 5 | Pain in extremity: Affected/At Risk (%): 4/21 (19.05%) | Pain: # Events: 1 | Pain: Affected/At Risk (%): 1/21 (4.76%) | Palpitations: # Events: 1 | Palpitations: Affected/At Risk (%): 1/21 (4.76%) | Paraesthesia: # Events: 1 | Paraesthesia: Affected/At Risk (%): 1/21 (4.76%) | Pericardial effusion: # Events: 0 | Pericardial effusion: Affected/At Risk (%): 0/21 (0%) | Peripheral coldness: # Events: 0 | Peripheral coldness: Affected/At Risk (%): 0/21 (0%) | Peripheral sensory neuropathy: # Events: 0 | Peripheral sensory neuropathy: Affected/At Risk (%): 0/21 (0%) | Phlebitis: # Events: 0 | Phlebitis: Affected/At Risk (%): 0/21 (0%) | Photophobia: # Events: 2 | Photophobia: Affected/At Risk (%): 2/21 (9.52%) | Platelet count decreased: # Events: 0 | Platelet count decreased: Affected/At Risk (%): 0/21 (0%) | Pleural effusion: # Events: 1

— patent US20260027116A1, “Methods of Treating Chronic Graft-Versus-Host Disease Following Allogeneic Hematopoietic Stem Cell Transplantation” (Kadmon Corporation, LLC, priority 2022, published 2026)
